Data from patent US12590062B2, “PD-1/PD-L1 inhibitors” (Gilead Sciences, Inc., priority 2017, dated 2026).

Tests used:
[1] = biological target: T1, PD-1/PD-L1 interaction (Homo sapiens, UniProt Q9NZQ7); test: PD-1/PD-L1 NFAT reporter co-culture assay; format: cell-based; settings: Jurkat PD-1 NFAT-luciferase cells co-cultured with aAPC-PD-L1 CHO cells, 6 hrs at 37° C.; read-out: EC50 NFAT Luciferase
T1 construct: expressed in transfected cells; host or cells: CHO cells (aAPC-PD-L1) co-cultured with Jurkat cells overexpressing PD-1 and an NFAT-luciferase reporter
How it was run: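 Luminescence (ONE-Glo) after 6 h, 37 °C co-culture reports NFAT-luciferase in PD-1 Jurkat cells, which PD-1/PD-L1 engagement suppresses. Partner cells: CHO expressing anti-CD3 and PD-L1. EC50 from four-parameter dose-response fit.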

[2] = biological target: PD-1/PD-L1 (Homo sapiens, UniProt Q9NZQ7); test: PD-1/PD-L1 biochemical protein-protein interaction assay (ALPHA); format: binding; settings: 0.3 nM His tagged PD-L1, 2.5 nM biotinylated Fc-PD-1, 60 minutes at 25° C., read-out: IC50 PD-L1-PD-1 Alpha IC50-mono PD-L1-fcP-D1
How it was run: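 His-PD-L1 ECD 0.3 nM + biotin-Fc-PD-1 2.5 nM (final), 25 mM Hepes pH 7.4, 150 mM NaCl, 3.4 mM EDTA; 60 min, 25° C; anti-His acceptor/streptavidin donor ALPHA beads; decreased signal = blocked binding; 4-parameter IC50.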

T1 sequence (Q9NZQ7 19-290): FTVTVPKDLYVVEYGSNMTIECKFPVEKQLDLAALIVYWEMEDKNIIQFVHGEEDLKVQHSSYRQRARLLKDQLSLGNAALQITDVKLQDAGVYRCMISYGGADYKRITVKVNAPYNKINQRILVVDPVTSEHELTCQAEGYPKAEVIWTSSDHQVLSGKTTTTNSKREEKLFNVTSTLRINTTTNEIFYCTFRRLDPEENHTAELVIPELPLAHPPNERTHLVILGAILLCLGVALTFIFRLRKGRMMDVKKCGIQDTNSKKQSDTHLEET
Chain of PD-1/PD-L1 (Q9NZQ7 19-238 limits assumed): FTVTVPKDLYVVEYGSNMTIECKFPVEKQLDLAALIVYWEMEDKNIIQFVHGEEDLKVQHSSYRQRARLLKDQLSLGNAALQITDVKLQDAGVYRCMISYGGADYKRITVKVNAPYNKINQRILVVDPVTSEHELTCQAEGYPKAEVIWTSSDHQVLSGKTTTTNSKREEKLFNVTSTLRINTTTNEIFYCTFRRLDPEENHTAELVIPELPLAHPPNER

EC50 [1] [µM] | IC50 [2] [µM] | SMILES
1.11 | 0.0312 | COc1nc(OCc2cccc(-c3cccc(COc4cc(OCc5cncc(C#N)c5)c(CNCCO)cc4Cl)c3C)c2C)ccc1CNCCO [Example 201, 5-((4-Chloro-2-(((2-hydroxyethyl)amino)methyl)-5-((3′-(((5-(((2-hydroxyethyl)amino)methyl)-6-methoxypyridin-2-yl)oxy)methyl)-2,2′-dimethyl-[1,1′-biphenyl]-3-yl)methoxy)phenoxy)methyl)nicotinonitrile]
1.92 | 0.0032 | COc1nc(OCc2cccc(-c3cccc(COc4cc(OCc5cncc(C#N)c5)c(CNC[C@@H](O)CC(=O)O)cc4Cl)c3C)c2C)ccc1CNCCO [Example 202, (S)-4-((5-Chloro-2-((5-cyanopyridin-3-yl)methoxy)-4-((3′-(((5-(((2-hydroxyethyl)amino)methyl)-6-methoxypyridin-2-yl)oxy)methyl)-2,2′-dimethyl-[1,1′-biphenyl]-3-yl)methoxy)benzyl)amino)-3-hydroxybutanoic acid]
0.927 | 0.0257 | Cc1c(COc2cc(OCc3cncc(C#N)c3)c(CNCCO)cc2Cl)cccc1-c1cccc(COc2ccc(CNCCO)cc2C(F)(F)F)c1C [Example 204, 5-((4-Chloro-2-(((2-hydroxyethyl)amino)methyl)-5-((3′-((4-(((2-hydroxyethyl)amino)methyl)-2-(trifluoromethyl)phenoxy)methyl)-2,2′-dimethyl-[1,1′-biphenyl]-3-yl)methoxy)phenoxy)methyl)nicotinonitrile]
1.55 | 0.002 | Cc1c(COc2cc(OCc3cncc(C#N)c3)c(CNCCO)cc2Cl)cccc1-c1cccc(COc2cc(OCc3cncc(C#N)c3)c(CNC[C@@H](O)CC(=O)O)cc2Cl)c1C [Example 207, (S)-4-((5-Chloro-4-((3′-((2-chloro-5-((5-cyanopyridin-3-yl)methoxy)-4-(((2-hydroxyethyl)amino)methyl)phenoxy)methyl)-2,2′-dimethyl-[1,1′-biphenyl]-3-yl)methoxy)-2-((5-cyanopyridin-3-yl)methoxy)benzyl)amino)-3-hydroxybutanoic acid]
10.6 | 0.0014 | Cc1c(COc2cc(OCc3cncc(C#N)c3)c(CNC[C@@H](O)CC(=O)O)cc2Cl)cccc1-c1cncc(COc2cc(OCc3cncc(C#N)c3)c(CNC[C@@H](O)CC(=O)O)cc2Cl)c1 [Example 208, (S)-4-((4-((5-(3-((4-((((S)-3-Carboxy-2-hydroxypropyl)amino)methyl)-2-chloro-5-((5-cyanopyridin-3-yl)methoxy)phenoxy)methyl)-2-methylphenyl)pyridin-3-yl)methoxy)-5-chloro-2-((5-cyanopyridin-3-yl)methoxy)benzyl)amino)-3-hydroxybutanoic acid]
0.413 | 0.00126 | Cc1c(COc2cc(OCc3cncc(C#N)c3)c(CNCC[C@H](O)C(=O)O)cc2Cl)cccc1-c1cccc(COc2cc(OCc3cncc(C#N)c3)c(CNCC[C@H](O)C(=O)O)cc2Cl)c1C [Example 215, (2S,2′S)-4,4′-((((((2,2′-dimethyl-[1,1′-biphenyl]-3,3′-diyl)bis(methylene))bis(oxy))bis(5-chloro-2-((5-cyanopyridin-3-yl)methoxy)-4,1-phenylene))bis(methylene))bis(azanediyl))bis(2-hydroxybutanoic acid)]
0.558 | 0.0002 | Cc1c(COc2cc(OCc3ccnc(C#N)c3)c(CNC[C@@H](O)CC(=O)O)cc2Cl)cccc1-c1cccc(COc2cc(OCc3ccnc(C#N)c3)c(CNC[C@@H](O)CC(=O)O)cc2Cl)c1C [Example 219, (3S,3′S)-4,4′-((((((2,2′-dimethyl-[1,1′-biphenyl]-3,3′-diyl)bis(methylene))bis(oxy))bis(5-chloro-2-((2-cyanopyridin-4-yl)methoxy)-4,1-phenylene))bis(methylene))bis(azanediyl))bis(3-hydroxybutanoic acid)]
0.177 | 0.002 | Cc1c(COc2cc(OCc3cc(C#N)cc(C#N)c3)c(CNC[C@@H](O)CC(=O)O)cc2Cl)cccc1-c1cccc(COc2cc(OCc3cc(C#N)cc(C#N)c3)c(CNC[C@@H](O)CC(=O)O)cc2Cl)c1C [Example 220, (3S,3′S)-4,4′-((((((2,2′-dimethyl-[1,1′-biphenyl]-3,3′-diyl)bis(methylene))bis(oxy))bis(5-chloro-2-((3,5-dicyanobenzyl)oxy)-4,1-phenylene))bis(methylene))bis(azanediyl))bis(3-hydroxybutanoic acid)]
0.274 | 0.0015 | Cc1c(COc2cc(OCc3cccc(C#N)n3)c(CNC[C@@H](O)CC(=O)O)cc2Cl)cccc1-c1cccc(COc2cc(OCc3cccc(C#N)n3)c(CNC[C@@H](O)CC(=O)O)cc2Cl)c1C [Example 221, (3S,3′S)-4,4′-((((((2,2′-dimethyl-[1,1′-biphenyl]-3,3′-diyl)bis(methylene))bis(oxy))bis(5-chloro-2-((6-cyanopyridin-2-yl)methoxy)-4,1-phenylene))bis(methylene))bis(azanediyl))bis(3-hydroxybutanoic acid)]
0.856 | 0.0003 | Cc1c(COc2cc(OCc3cncc(C(N)=O)c3)c(CNC[C@@H](O)CC(=O)O)cc2Cl)cccc1-c1cccc(COc2cc(OCc3cncc(C(N)=O)c3)c(CNC[C@@H](O)CC(=O)O)cc2Cl)c1C [Example 222, (3S,3′S)-4,4′-((((((2,2′-dimethyl-[1,1′-biphenyl]-3,3′-diyl)bis(methylene))bis(oxy))bis(2-((5-carbamoylpyridin-3-yl)methoxy)-5-chloro-4,1-phenylene))bis(methylene))bis(azanediyl))bis(3-hydroxybutanoic acid)]
≥ 50 | 0.0346 | Cc1c(COc2ccc(CNCCO)cc2C(F)(F)F)cccc1-c1cccc(COc2ccc(CNCCO)cc2C(F)(F)F)c1C [Example 223, 2,2′-((((((2,2′-dimethyl-[1,1′-biphenyl]-3,3′-diyl)bis(methylene))bis(oxy))bis(3-(trifluoromethyl)-4,1-phenylene))bis(methylene))bis(azanediyl))bis(ethan-1-ol)]
24.9 | 0.0018 | Cc1c(COc2ccc(CNC[C@@H](O)CC(=O)O)cc2C(F)(F)F)cccc1-c1cccc(COc2ccc(CNC[C@@H](O)CC(=O)O)cc2C(F)(F)F)c1C [Example 224, (3S,3′S)-4,4′-((((((2,2′-dimethyl-[1,1′-biphenyl]-3,3′-diyl)bis(methylene))bis(oxy))bis(3-(trifluoromethyl)-4,1-phenylene))bis(methylene))bis(azanediyl))bis(3-hydroxybutanoic acid)]
2.12 | 0.0009 | COc1nc(/C=C/c2cccc(-c3cccc(/C=C/c4ccc(CNC[C@@H](O)CC(=O)O)c(OC)n4)c3C)c2C)ccc1CNC[C@@H](O)CC(=O)O [Example 238, (3S,3′S)-4,4′-(((((1E,1′E)-(2,2′-dimethyl-[1,1′-biphenyl]-3,3′-diyl)bis(ethene-2,1-diyl))bis(2-methoxypyridine-6,3-diyl))bis(methylene))bis(azanediyl))bis(3-hydroxybutanoic acid)]
